Assay [1] addresses T1, human MMP13 (Homo sapiens (Human), UniProt P45452). Briefly: hMMP13 assay, Protocol 1 (390 MMP FRET Substrate I, Chemicon enzyme). To be noted: Protocol 1, human MMP13 (Chemicon), read-out: hMMP-13 potency IC50. Type of assay: biochemical. Here is the method: (§1) Human MMP13 is preactivated by incubated the enzyme in the same buffer complemented with 1 mM freshly prepared p-Aminophenylmercuric acetate (AMPA) for 1 h at 37° C.

A further assay deals with human ADAMTS6 (Homo sapiens (Human), UniProt Q9UKP5). As to the kind of experiment: hADAMTS-6 fluorescent based protease assay (520 MMP FRET substrate XII). Type of assay: biochemical. To be noted: 37° C. for 2 h; read-out: hADAMTS-6 potency IC50. The protocol: The IC50 value for test compounds can be determined in a fluorescent based protease assay.
The substrate contains sequence Arg-Pro-Lys-Pro-Tyr-Ala-Nva-Trp-Met-Lys (SEQ ID NO: 7) with attached a fluorescent probe and a quencher. Without ADAMTS6, the emission of the probe is quenched. If the substrate is cleaved by ADAMTS6, the emission of the probe is not quenched anymore. Inhibition of ADAMTS6 activity, will result in a decrease of the signal.
To perform the assay, 4 μL of a dilution series of compound in water, starting from 20 μM highest concentration, ⅕ dilution, is added to the wells. 2 ng ADAMTS6 enzyme is diluted in 25 mM Tris pH8.0, 0.05% CHAPS, 2.5 mM CaCl2 in a total volume of 26 μL (final concentration 0.73 nM). The reaction is started by addition of 10 μL of 1 μM 520 MMP FRET Substrate XII (final concentration, diluted in same buffer as described above) and the mixture is incubated at 37° C. for 2 h. […] After this incubation, cleavage of the substrate is measured using the Envision (Perkin Elmer, exc485/em530).

For another assay, the target named is human TACE (Homo sapiens (Human), UniProt P78536). Briefly: biochemical.
A further assay addresses human ADAMTS4 (Homo sapiens (Human), UniProt O75173). Briefly: hADAMTS-4 TBIS-1 cleavage assay, Protocol 2. The class given is biochemical.
The target in another assay is human MMP14 (Homo sapiens (Human), UniProt P50281). Briefly: hMMP14 assay (390 MMP FRET Substrate I). Type of assay: biochemical. To be noted: human MMP14 (Biomol), read-out: hMMP-14 potency IC50.
In the next assay the target is human ADAMTS-5 (Homo sapiens (Human), UniProt Q9UNA0). Briefly: hADAMTS-5 TBIS-1 cleavage assay, Protocol 3. The class given is biochemical. To be noted: 90 min at 37° C., read-out: hADAMTS-5 potency IC50.
In assay [2] the target is T1, human MMP13. As to the kind of experiment: hMMP13 assay, Protocol 2 (390 MMP FRET Substrate I, Enzo enzyme). The class given is biochemical. The settings on record: Protocol 2, human MMP13 (Enzo Life Sciences), read-out: hMMP-13 potency IC50. Here is the method: as §1
Where [3] appears, read: Protocol 2, 180 min at 37° C., read-out: ADAMTS4 potency IC50.

Where two headings read alike, the source gives them in different places. Some results are limits rather than exact numbers.

human ADAMTS6, sequence (Q9UKP5 other isoform, or with tags, fused parts or gaps): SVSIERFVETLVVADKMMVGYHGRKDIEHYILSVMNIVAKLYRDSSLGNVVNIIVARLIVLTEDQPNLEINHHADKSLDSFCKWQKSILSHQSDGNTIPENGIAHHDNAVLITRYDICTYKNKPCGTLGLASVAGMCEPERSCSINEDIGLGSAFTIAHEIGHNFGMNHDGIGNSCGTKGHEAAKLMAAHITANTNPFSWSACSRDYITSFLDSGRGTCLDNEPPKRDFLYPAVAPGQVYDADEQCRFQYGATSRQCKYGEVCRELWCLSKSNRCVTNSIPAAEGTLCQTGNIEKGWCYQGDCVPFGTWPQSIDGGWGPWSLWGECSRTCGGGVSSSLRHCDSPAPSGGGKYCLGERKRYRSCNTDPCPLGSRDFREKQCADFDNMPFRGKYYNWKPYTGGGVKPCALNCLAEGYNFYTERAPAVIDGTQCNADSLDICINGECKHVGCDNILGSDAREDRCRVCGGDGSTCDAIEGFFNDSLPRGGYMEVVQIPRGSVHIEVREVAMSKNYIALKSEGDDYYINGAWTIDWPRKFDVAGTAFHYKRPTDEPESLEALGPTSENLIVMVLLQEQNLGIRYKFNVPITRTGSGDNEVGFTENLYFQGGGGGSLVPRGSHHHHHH
human ADAMTS4, sequence (O75173 213-837): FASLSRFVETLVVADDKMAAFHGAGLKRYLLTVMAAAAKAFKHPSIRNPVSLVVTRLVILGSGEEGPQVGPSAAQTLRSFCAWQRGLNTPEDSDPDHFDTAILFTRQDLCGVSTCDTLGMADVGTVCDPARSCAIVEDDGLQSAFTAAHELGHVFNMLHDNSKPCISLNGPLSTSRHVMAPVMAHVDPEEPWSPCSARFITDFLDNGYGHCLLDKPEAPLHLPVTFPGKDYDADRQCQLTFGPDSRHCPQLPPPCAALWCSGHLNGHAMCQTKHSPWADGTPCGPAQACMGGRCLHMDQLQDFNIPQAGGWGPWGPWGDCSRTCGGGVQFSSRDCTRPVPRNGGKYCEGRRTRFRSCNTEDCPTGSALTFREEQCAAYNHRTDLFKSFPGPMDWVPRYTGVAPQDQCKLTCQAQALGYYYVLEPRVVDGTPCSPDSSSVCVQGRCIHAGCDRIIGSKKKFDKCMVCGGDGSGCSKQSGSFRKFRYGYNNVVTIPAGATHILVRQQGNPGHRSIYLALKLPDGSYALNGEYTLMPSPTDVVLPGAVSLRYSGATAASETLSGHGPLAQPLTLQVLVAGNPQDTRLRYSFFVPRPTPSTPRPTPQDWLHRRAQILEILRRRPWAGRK
human TACE, sequence (P78536 215-671): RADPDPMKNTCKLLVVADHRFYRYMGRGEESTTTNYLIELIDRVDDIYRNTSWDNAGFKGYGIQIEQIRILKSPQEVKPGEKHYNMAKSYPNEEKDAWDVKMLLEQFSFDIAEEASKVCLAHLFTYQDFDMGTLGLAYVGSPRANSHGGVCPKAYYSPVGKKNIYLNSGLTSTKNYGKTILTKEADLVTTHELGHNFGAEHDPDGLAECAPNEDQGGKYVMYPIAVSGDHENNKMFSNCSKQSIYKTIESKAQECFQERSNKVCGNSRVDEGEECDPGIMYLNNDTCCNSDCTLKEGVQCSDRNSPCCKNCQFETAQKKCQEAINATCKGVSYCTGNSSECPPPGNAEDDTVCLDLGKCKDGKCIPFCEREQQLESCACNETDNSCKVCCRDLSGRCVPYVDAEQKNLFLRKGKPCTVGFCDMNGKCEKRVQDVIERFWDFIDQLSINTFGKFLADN
human ADAMTS-5, sequence (Q9UNA0 262-930): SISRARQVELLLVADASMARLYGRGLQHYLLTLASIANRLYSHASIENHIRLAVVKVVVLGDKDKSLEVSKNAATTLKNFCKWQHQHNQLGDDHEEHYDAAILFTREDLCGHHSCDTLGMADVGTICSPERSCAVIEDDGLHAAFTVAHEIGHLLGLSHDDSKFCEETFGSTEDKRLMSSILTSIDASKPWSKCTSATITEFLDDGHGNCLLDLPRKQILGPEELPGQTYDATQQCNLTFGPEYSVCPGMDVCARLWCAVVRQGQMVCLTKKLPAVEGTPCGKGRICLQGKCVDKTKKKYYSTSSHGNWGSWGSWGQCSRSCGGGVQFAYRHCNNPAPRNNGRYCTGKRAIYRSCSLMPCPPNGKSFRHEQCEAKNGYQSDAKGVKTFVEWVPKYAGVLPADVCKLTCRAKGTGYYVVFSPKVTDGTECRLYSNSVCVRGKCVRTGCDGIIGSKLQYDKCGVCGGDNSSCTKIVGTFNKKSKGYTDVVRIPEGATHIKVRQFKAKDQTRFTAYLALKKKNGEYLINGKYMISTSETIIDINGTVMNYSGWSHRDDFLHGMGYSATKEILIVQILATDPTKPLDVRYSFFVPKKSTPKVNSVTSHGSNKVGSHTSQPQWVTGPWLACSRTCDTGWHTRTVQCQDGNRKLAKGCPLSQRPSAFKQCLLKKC
Procedure for human ADAMTS-5: The reaction is initiated by adding to the assay plate TBIS-1 (10 μL, 4.5 μM, Anaspec) in the same buffer.
Finally, the fluorescence is read on the Envision (Perkin Elmer) after an incubation of 90 min at 37° C. (Excitation 485 nm, emission 530).
Procedure for human MMP14: The basis for the assay is the cleavage of the substrate 390 MMP FRET Substrate I (Anaspec Cat #AS-27076) by human MMP14 (Biomol, Cat #SE-259).
The reaction is initiated by adding to the assay plate 390 MMP FRET Substrate I (10 μL, 2.5 μM) in the same buffer.
Finally, the fluorescence is read on the Envision (Perkin Elmer) after an incubation of 60 min at room temperature (Excitation 485 nm, Emission 530).
Procedure for human TACE: Finally, the fluorescence is read on the Envision (Perkin Elmer) after an incubation of 75 min at room temperature (Excitation 485 nm, Emission 530).

Turning to `COCC1(CC(C)C(=O)N2CCN(c3ccc(Cl)c(OC)c3)[C@@H](C)C2)NC(=O)NC1=O` (mixture of isomers) [Cpd 47, 5-[3-[(3S)-4-(4-chloro-3-methoxy-phenyl)-3-methyl-piperazin-1-yl]-2-methyl-3-oxo-propyl]-5-(methoxymethyl)imidazolidine-2,4-dione], the IC50 on human MMP13 [1] was greater than 100 nM; on human ADAMTS6 it was 0.001 to 25 nM; against human TACE, greater than 100 nM; against human ADAMTS4, 25 to 50 nM; on human MMP14, greater than 100 nM; on human ADAMTS-5, 25 to 50 nM.

For `CCc1cc(N2CCN(C(=O)[C@@H](C)C[C@@]3(COC)NC(=O)NC3=O)C[C@@H]2C)ccc1Cl` (stereo in doubt) [Cpd 124, 5-[3-[(3S)-4-(4-chloro-3-ethyl-phenyl)-3-methyl-piperazin-1-yl]-2-methyl-3-oxo-propyl]-5-(methoxymethyl)imidazolidine-2,4-dione], the IC50 at human ADAMTS6 was 0.001 to 25 nM; at human ADAMTS4 (setting [3]) it was greater than 100 nM; on human MMP13 [2], greater than 100 nM.

As to `COc1cc(N2CCN(C(=O)CCC3(C)NC(=O)NC3=O)C[C@@H]2C)cc(F)c1F` (some centres unmarked) [Cpd 22, 5-[3-[(3 S)-4-(3,4-difluoro-5-methoxy-phenyl)-3-methyl-piperazin-1-yl]-3-oxo-propyl]-5-methyl-imidazolidine-2,4-dione], the IC50 was greater than 100 nM on human MMP13 [1]; 0.001 to 25 nM at human ADAMTS6; greater than 100 nM at human TACE; greater than 100 nM at human ADAMTS4 (setting [3]); greater than 100 nM at human ADAMTS-5.

Consider `COc1cc(N2CCN(C(=O)CCC3(C)NC(=O)NC3=O)CC2)cc(Cl)c1Cl` (centres unmarked) [Cpd 48, 5-[3-[4-(3,4-dichloro-5-methoxy-phenyl)piperazin-1-yl]-3-oxo-propyl]-5-methyl-imidazolidine-2,4-dione], for which the IC50 was greater than 100 nM at human MMP13 [1]; 0.001 to 25 nM at human ADAMTS6; greater than 100 nM at human TACE; greater than 100 nM on human ADAMTS4 (setting [3]); greater than 100 nM on human MMP14; 50 to 100 nM at human ADAMTS-5.

`COc1cc(N2CCN(C(=O)CCC3(C)NC(=O)NC3=O)CC2)cc(Cl)c1F` (centres unmarked) [Cpd 50, 5-[3-[4-(3-chloro-4-fluoro-5-methoxy-phenyl)piperazin-1-yl]-3-oxo-propyl]-5-methyl-imidazolidine-2,4-dione]: the IC50 was greater than 100 nM at human MMP13 [1]; 0.001 to 25 nM at human ADAMTS6; greater than 100 nM on human TACE; greater than 100 nM on human ADAMTS4 (setting [3]); greater than 100 nM on human ADAMTS-5.

Take `CC(C)c1cc(N2CCN(C(=O)CC[C@@]3(C)NC(=O)NC3=O)C[C@@H]2C)ccc1Cl` [Cpd 85, (5R)-5-[3-[(3 S)-4-(4-chloro-3-isopropyl-phenyl)-3-methyl-piperazin-1-yl]-3-oxo-propyl]-5-methyl-imidazolidine-2,4-dione]: the IC50 at human ADAMTS6 is 0.001 to 25 nM; on human ADAMTS4 (setting [3]), greater than 100 nM; at human MMP13 [2] it was greater than 100 nM.

As for `COc1cc(N2CCN(C(=O)CC[C@H]3NC(=O)NC3=O)CC2)cc(F)c1F` [Cpd 128, (5R)-5-[3-[4-(3,4-difluoro-5-methoxy-phenyl)piperazin-1-yl]-3-oxo-propyl]imidazolidine-2,4-dione], the IC50 was greater than 100 nM at human MMP13 [1]; 50 to 100 nM at human ADAMTS6; greater than 100 nM against human TACE; greater than 100 nM at human ADAMTS4 (setting [3]); greater than 100 nM on human ADAMTS-5.

`COc1cc(N2CCN(C(=O)CC[C@H]3NC(=O)NC3=O)CC2)cc(F)c1Cl` [Cpd 143, (5R)-5-[3-[4-(4-chloro-3-fluoro-5-methoxy-phenyl)piperazin-1-yl]-3-oxo-propyl]imidazolidine-2,4-dione]: the IC50 is greater than 100 nM on human MMP13 [1]; 0.001 to 25 nM on human ADAMTS6; greater than 100 nM on human TACE; greater than 100 nM at human ADAMTS4 (setting [3]); greater than 100 nM at human ADAMTS-5.

On to `COc1cc(N2CCN(C(=O)CC[C@H]3NC(=O)NC3=O)CC2)cc(Cl)c1Cl` [Cpd 145, (5R)-5-[3-[4-(3,4-dichloro-5-methoxy-phenyl)piperazin-1-yl]-3-oxo-propyl]imidazolidine-2,4-dione], for which the IC50 was greater than 100 nM on human MMP13 [1]; 0.001 to 25 nM at human ADAMTS6; greater than 100 nM against human TACE; greater than 100 nM at human ADAMTS4 (setting [3]); greater than 100 nM at human MMP14; 50 to 100 nM on human ADAMTS-5.

Values taken from patent US10829478B2, “5-[3-[piperazin-1-yl]-3-oxo-propyl]-imidazolidine-2,4-dione derivatives as ADAMTS 4 and 5 inhibitors for treating e.g. osteoarthritis” (Galapagos NV, priority 2016, dated 2020).
